What was measured:
Format in all cases: cell-based
[1] = test system: all the bacteria and fungus used in above biological screening; test: Disk diffusion assay, whole panel; settings: seven bacteria and C. albicans
From the text: (§1) Microorganisms: Laboratory strains of bacteria and fungus were obtained from Dr. Neil Towers' and Dr. Jovel's lab, The University of British Columbia. Seven species of bacteria and one species of fungus will be used in the screening process. The bacteria strains consisted of Staphylococcus aureus, methicillin resistant Staphylococcus aureus, Bacillus subtilis and Enterococcus faecalis, Escherichia coli, Pseudomonas aeruginosa, and Salmonella typhimurium. The fungal species was Candida albicans.
(§2) Methods: Disk diffusion assay on agar plates inoculated with the organisms being studies. The plates were divided into quadrants or sixths using a black marking pen. In quadrant 1 and 2, negative and positive controls were run (no treatment and gentamicin). Test compounds were run on the remaining available portions.

Pseudomonas aeruginosa = test: Disk diffusion assay on agar plates; set-up: key: “+” active; “—” not active
From the text: as §1, §2

Salmonella typhimurium = test: Disk diffusion assay on agar plates; set-up: key: “+” active; “—” not active
From the text: as §1, §2

Enterococcus faecalis = test: Disk diffusion assay on agar plates; set-up: key: “+” active; “—” not active
From the text: as §1, §2

Candida albicans = test: Disk diffusion assay on agar plates; set-up: key: “+” active; “—” not active
From the text: as §1, §2

Molecule | anti-microbial activity over the panel, in words [1] | Anti-microbial activity P. a (Pseudomonas aeruginosa) | Anti-microbial activity S. t. (Salmonella typhimurium) | Anti-microbial activity E. f. (Enterococcus faecalis) | Anti-microbial activity C. a (Candida albicans)
CC(C)c1cccc(=O)c(O)c1 [Hinokitiol standard, 2,4,6-Cycloheptatrien-1-one,2-hydroxy-4-(1-methylethyl)] | demonstrated activities against all the bacteria and fungus | + |  |  | 
CC1(C)C=CC=C(C(=O)O)C=C1 [Thujic acid standard, thujic acid] | showed activities against some bacteria and fungus | — | + |  | 
Gentamicin | active against all the tested bacteria but not against C. albicans |  |  | + | —

From patent US20070219141A1, “Plant Materials Extraction Method” (priority 2003, published 2007)
